Results taken from PubChem BioAssay AID330 (DTP/NCI, 2004).
Values joined by “and” are separate entries in the source; they are usually repeats but may differ in a detail not shown here. Identical values can stand only once. Toxic doses and inconclusive results are not listed. The calls were made as follows: active = survival T/C of 150% or more; inactive = T/C below 125% in these data. Peptide text beside a SMILES is read from it.

Tested on: P388 leukemia ip, CD2F1 mice, survival T/C
Assay: NCI In Vivo Anticancer Drug Screen. Data for tumor model P388 Leukemia (intraperitoneal) in CD2F1 (CDF1) mice
Conditions: endpoint: median survival time, higher = longer survival
Method in brief: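 Mice carrying the transplanted tumor received test compound or vehicle. Survival was recorded in each group, and the value is the treated-group measurement divided by that of the vehicle-treated control group.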

[1] = dose: 50.0 mg/kg/injection, schedule: Q01DX009 (ip), vehicle: Klucel (hydroxypropylcellulose) (HPC)
[2] = dose: 100.0 mg/kg/injection, schedule: Q01DX009 (ip), vehicle: Klucel (hydroxypropylcellulose) (HPC)
[3] = dose: 200.0 mg/kg/injection, schedule: Q01DX009 (ip), vehicle: Klucel (hydroxypropylcellulose) (HPC)
[4] = dose: 100.0 mg/kg/injection, schedule: Q04DX003 (ip), vehicle: saline
[5] = dose: 50.0 mg/kg/injection, schedule: Q01DX005 (ip), vehicle: saline with Tween-80
[6] = dose: 100.0 mg/kg/injection, schedule: Q01DX005 (ip), vehicle: saline with Tween-80
[7] = dose: 200.0 mg/kg/injection, schedule: Q01DX005 (ip), vehicle: saline with Tween-80
[8] = dose: 100.0 mg/kg/injection, schedule: Q04DX003 (ip), vehicle: saline with Tween-80
[9] = dose: 200.0 mg/kg/injection, schedule: Q04DX003 (ip), vehicle: saline with Tween-80
[10] = dose: 400.0 mg/kg/injection, schedule: Q04DX003 (ip), vehicle: saline with Tween-80
[11] = dose: 50.0 mg/kg/injection, schedule: Q01DX005 (ip), vehicle: Klucel (hydroxypropylcellulose) (HPC)
[12] = dose: 100.0 mg/kg/injection, schedule: Q01DX005 (ip), vehicle: Klucel (hydroxypropylcellulose) (HPC)
[13] = dose: 200.0 mg/kg/injection, schedule: Q01DX005 (ip), vehicle: Klucel (hydroxypropylcellulose) (HPC)
[14] = dose: 50.0 mg/kg/injection, schedule: Q01DX009 (ip), vehicle: saline with Tween-80
[15] = dose: 100.0 mg/kg/injection, schedule: Q01DX009 (ip), vehicle: saline with Tween-80
[16] = dose: 200.0 mg/kg/injection, schedule: Q01DX009 (ip), vehicle: saline with Tween-80
[17] = dose: 50.0 mg/kg/injection, schedule: Q04DX003 (ip), vehicle: saline with Tween-80
[18] = dose: 100.0 mg/kg/injection, schedule: Q04DX003 (ip), vehicle: Klucel (hydroxypropylcellulose) (HPC)
[19] = dose: 200.0 mg/kg/injection, schedule: Q04DX003 (ip), vehicle: Klucel (hydroxypropylcellulose) (HPC)

Measured: T/C

CN(C)c1ccc(/C=C/c2ccnc3c(O)cccc23)cc1
inactive: [1] 113 % of control | [2] 104 % of control | [3] 95 % of control

CN=C=O
inactive: dose: 6.25 mg/kg/injection, schedule: Q01DX005 (ip), vehicle: water 99 % of control | dose: 12.5 mg/kg/injection, schedule: Q01DX005 (ip), vehicle: water 92 % of control | dose: 25.0 mg/kg/injection, schedule: Q01DX005 (ip), vehicle: water 98 % of control | dose: 50.0 mg/kg/injection, schedule: Q01DX005 (ip), vehicle: water 101 % of control | dose: 100.0 mg/kg/injection, schedule: Q01DX005 (ip), vehicle: water 108 % of control | dose: 200.0 mg/kg/injection, schedule: Q01DX005 (ip), vehicle: water 99 % of control

CC(=O)N1CCCC2=C1CCC2
inactive: dose: 25.0 mg/kg/injection, schedule: Q04DX003 (ip), vehicle: saline 104 % of control | dose: 50.0 mg/kg/injection, schedule: Q04DX003 (ip), vehicle: saline 100 % of control | [4] 94 % of control and 97 % of control

CN1C(C)(C)CC2=C(c3ccccc3)c3ccccc3C2C1(C)C (stereo not drawn)
inactive: [5] 106 % of control | [6] 100 % of control | [7] 102 % of control

O=[N+]([O-])c1ccc(/C=C/C=C/C=C/C=C/c2ccc(S(=O)(=O)F)cc2Cl)c(Cl)c1
inactive: dose: 15.0 mg/kg/injection, schedule: Q01DX005 (ip), vehicle: saline with Tween-80 99 % of control | dose: 30.0 mg/kg/injection, schedule: Q01DX005 (ip), vehicle: saline with Tween-80 104 % of control | dose: 60.0 mg/kg/injection, schedule: Q01DX005 (ip), vehicle: saline with Tween-80 92 % of control and 98 % of control

C=C1CN(C(=O)c2ccccc2)C(=S)S1
inactive: [5] 108 % of control | [6] 108 % of control | [7] 103 % of control

CN(C)C1CC2CCCCC2CC1OC(=O)c1ccc([N+](=O)[O-])cc1 (stereo not drawn)
inactive: [8] 101 % of control | [9] 110 % of control | [10] 101 % of control

NC(CCC(=O)O)C(=O)NC(Cc1ccc(O)cc1)C(=O)NC(CCC(=O)O)C(=O)O (stereo not drawn) (H-Glu-Tyr-Glu-OH; configuration not given here)
inactive: [11] 93 % of control | [12] 100 % of control | [13] 98 % of control

CC(=O)CC(=O)C(F)(F)F.CC(=O)CC(=O)C(F)(F)F.CC(=O)CC(=O)C(F)(F)F.[Sm]
inactive: [1] 96 % of control | [2] 94 % of control | [3] 93 % of control | dose: 400.0 mg/kg/injection, schedule: Q01DX009 (ip), vehicle: Klucel (hydroxypropylcellulose) (HPC) 94 % of control

Nc1nc(S)cc(=O)[nH]1
inactive: [14] 91 % of control | [15] 108 % of control | [16] 94 % of control | dose: 400.0 mg/kg/injection, schedule: Q01DX009 (ip), vehicle: saline with Tween-80 99 % of control

COc1nc(NC2OC(CO)C(O)C(O)C2O)c(Cl)c(=O)[nH]1 (stereo not drawn)
inactive: dose: 60.0 mg/kg/injection, schedule: Q01DX005 (ip), vehicle: saline 97 % of control | dose: 120.0 mg/kg/injection, schedule: Q01DX005 (ip), vehicle: saline 94 % of control | dose: 240.0 mg/kg/injection, schedule: Q01DX005 (ip), vehicle: saline 102 % of control

COC1OC2COC(c3ccccc3)OC2C(O)C1N (stereo not drawn)
inactive: dose: 25.0 mg/kg/injection, schedule: Q01DX009 (ip), vehicle: saline with Tween-80 112 % of control | dose: 25.0 mg/kg/injection, schedule: Q04DX003 (ip), vehicle: saline with Tween-80 100 % of control | [14] 95 % of control | [17] 100 % of control | [15] 104 % of control | [8] 100 % of control

O=C(NC(Cc1cn(Cc2ccccc2)cn1)C(=O)O)OCC1c2ccccc2-c2ccccc21 (stereo not drawn)
inactive: [11] 104 % of control | [12] 98 % of control | [13] 99 % of control

COC1C(O[C@@H]2c3c(cc4c(c3O)C(=O)c3c(O)cccc3C4=O)C(=O)C(C)(O)C2OC)OC(C)C(O)C1O (stereo partly drawn)
inactive: dose: 6.25 mg/kg/injection, schedule: Q04DX003 (ip), vehicle: Klucel (hydroxypropylcellulose) (HPC) 102 % of control | dose: 12.5 mg/kg/injection, schedule: Q04DX003 (ip), vehicle: Klucel (hydroxypropylcellulose) (HPC) 101 % of control | dose: 25.0 mg/kg/injection, schedule: Q04DX003 (ip), vehicle: Klucel (hydroxypropylcellulose) (HPC) 106 % of control | dose: 50.0 mg/kg/injection, schedule: Q04DX003 (ip), vehicle: Klucel (hydroxypropylcellulose) (HPC) 101 % of control and 104 % of control | [18] 104 % of control | [19] 121 % of control

CCOC(=S)SC1CC2(C)C(CCC3C2CCC2(C)C(OC(C)=O)CCC32)CC1=O (stereo not drawn)
inactive: [4] 96 % of control | dose: 200.0 mg/kg/injection, schedule: Q04DX003 (ip), vehicle: saline 92 % of control | dose: 400.0 mg/kg/injection, schedule: Q04DX003 (ip), vehicle: saline 89 % of control

C/C=C(/C)C(=O)O[C@@H]1c2c(C)coc2C(=O)[C@@]2(OC(C)=O)CCC[C@@](C)(O)[C@@]12C
inactive: dose: 3.25 mg/kg/injection, schedule: Q01DX005 (ip), vehicle: saline + alcohol 110 % of control | dose: 6.5 mg/kg/injection, schedule: Q01DX005 (ip), vehicle: saline + alcohol 96 % of control | dose: 13.0 mg/kg/injection, schedule: Q01DX005 (ip), vehicle: saline + alcohol 91 % of control | dose: 26.0 mg/kg/injection, schedule: Q01DX005 (ip), vehicle: saline + alcohol 93 % of control

CCC/C=[CH]/[Hg][Cl]
inactive: dose: 6.25 mg/kg/injection, schedule: Q04DX003 (ip), vehicle: other 110 % of control | dose: 12.5 mg/kg/injection, schedule: Q04DX003 (ip), vehicle: other 110 % of control

O=c1oc(-c2ccc([N+](=O)[O-])cc2Cl)nc2ccccc12
inactive: dose: 50.0 mg/kg/injection, schedule: Q01DX009 (ip), vehicle: saline 106 % of control | dose: 100.0 mg/kg/injection, schedule: Q01DX009 (ip), vehicle: saline 105 % of control | dose: 200.0 mg/kg/injection, schedule: Q01DX009 (ip), vehicle: saline 106 % of control

CCCCCCCCCCCCCCCCN(O)C(=O)c1cnc[nH]1
inactive: [18] 99 % of control | [19] 101 % of control | dose: 400.0 mg/kg/injection, schedule: Q04DX003 (ip), vehicle: Klucel (hydroxypropylcellulose) (HPC) 97 % of control

CCCC(C)c1ccc(OCc2ccc(C)cc2)cc1 (stereo not drawn)
inactive: [14] 114 % of control | [15] 91 % of control | [16] 95 % of control

CC(=O)OCCCN1/C(=C/C=C2\CCC(/C=C/c3sc4cc5ccccc5cc4[n+]3CCCOC(C)=O)=C2N(c2ccccc2)c2ccccc2)Sc2cc3ccccc3cc21
inactive: dose: 12.5 mg/kg/injection, schedule: Q01DX009 (ip), vehicle: Klucel (hydroxypropylcellulose) (HPC) 110 % of control | dose: 25.0 mg/kg/injection, schedule: Q01DX009 (ip), vehicle: Klucel (hydroxypropylcellulose) (HPC) 110 % of control | [1] 111 % of control

Cc1nc2c(ncn2C2OC(CO)C(O)C2O)c(=O)[nH]1 (stereo not drawn)
inactive: [17] 96 % of control | [8] 101 % of control | [9] 109 % of control | [10] 111 % of control
